# Measured values reported in PMC13652807, “A co-evolved peptide-GPCR system senses host entry to drive fungal infection” (Nature Communications, 2026).
# Substitutions are numbered along the chain they refer to. pEC50: −log10 of the molar value. Where a SMILES comes first, the peptide text is derived from it.
# Key:
# Gpe1N246L+N247L = target: T1, Gpe1N246L+N247L (Mycosarcoma maydis, UniProt A0A0D1E6B3, N246L/N247L); test: Dose-response in yeast reporter assay, Gpe1 N246L+N247L; assay type: cell-based, Ustilago maydis; settings: Fig. 4e; receptor variant N246L+N247L
# T1 construct: expressed in transfected cells; host or cells: Saccharomyces cerevisiae reporter strain, plasmid pIL0350 (made from pIL0186)
# T1 sequence (A0A0D1E6B3 1-435 N246L/N247L): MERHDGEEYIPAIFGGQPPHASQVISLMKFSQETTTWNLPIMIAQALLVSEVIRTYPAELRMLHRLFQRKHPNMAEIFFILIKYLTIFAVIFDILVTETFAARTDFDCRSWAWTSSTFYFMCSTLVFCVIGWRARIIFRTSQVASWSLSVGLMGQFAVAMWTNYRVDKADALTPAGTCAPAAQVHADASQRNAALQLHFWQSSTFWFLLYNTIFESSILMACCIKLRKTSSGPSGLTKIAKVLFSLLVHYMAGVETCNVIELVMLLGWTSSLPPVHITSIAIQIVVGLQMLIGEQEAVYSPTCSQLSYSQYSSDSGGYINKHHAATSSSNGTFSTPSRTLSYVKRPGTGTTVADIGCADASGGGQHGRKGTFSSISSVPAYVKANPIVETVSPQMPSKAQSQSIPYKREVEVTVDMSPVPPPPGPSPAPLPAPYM
# Procedure: (§1) To test the functional relevance of this putative TM3–TM6 activation module, we generated Gpe1 variants targeting R133 and the adjacent TM6 residues N246 and N247 (Supplementary Fig. 5). Gpe1 variant activation was analyzed by the yeast reporter system. […] However, reduced activity of individual variants may also reflect effects on receptor stability or intracellular trafficking competence.
# (§2) For the plasmid constructions, standard molecular cloning strategies and techniques were applied. For GPCR expression in S. cerevisiae, the ScSte2 expression vector pRS416[22] was digested with SpeI and XhoI to remove the ScSte2 gene. The pure backbone vector was used for classical restriction-ligation (T4 ligase) to clone the GPCR genes inside using unique restriction sites (SpeI and XhoI) added in the PCR gene amplification. For plasmid amplification, recombinant plasmids were transformed in chemically competent E. coli Top10 cells. […]
# (§3) For dose response curves, 9 different concentrations (15 μM and […] five-fold dilutions starting at 8 μM peptide, sterile water was used as no peptide control) of the specific synthetic peptide were used. Experiments were performed in 96-well microtiter plates using a microplate reader (Tecan), and OD600 and red fluorescence were measured after 20 h. […]
# wild-type Gpe1 = target: T2, wild-type Gpe1 (Mycosarcoma maydis, UniProt A0A0D1E6B3); test: Dose-response of synthetic peptide in yeast reporter assay, wild-type Gpe1; assay type: cell-based, Ustilago maydis; settings: for pEC50: 9 concentrations up to 15 µM, fluorescence after 20 h, four-parameter fit, Fig. 2b/2d, mean of three independent biological experiments
# T2 construct: expressed in transfected cells; host or cells: Saccharomyces cerevisiae JTy014-derived reporter strain, plasmid pIL0186 (pRS416 backbone)
# T2 sequence (A0A0D1E6B3 1-435): T1 sequence (A0A0D1E6B3 1-435 N246L/N247L) with L246N, L247N
# Procedure: Experiments were performed in 96-well microtiter plates using a microplate reader (Tecan), and OD600 and red fluorescence were measured after 20 h. A four-parameter non-linear regression model (curve fit) was used using Prism (GraphPad 5): Agonist concentration vs. response (variable slope). After analysis, EC50, basal activation, maximal activation and the Hill coefficient was extracted as previously described.
# Gpe1N246D+N247G = target: T3, Gpe1N246D+N247G (Mycosarcoma maydis, UniProt A0A0D1E6B3, N246D/N247G); test: Dose-response in yeast reporter assay, Gpe1 N246D+N247G; assay type: cell-based, Ustilago maydis; settings: Fig. 4e; receptor variant N246D+N247G; read-out: apparent EC50
# T3 construct: expressed in transfected cells; host or cells: Saccharomyces cerevisiae reporter strain, plasmid pIL0351 (made from pIL0186)
# T3 sequence (A0A0D1E6B3 1-435 N246D/N247G): T1 sequence (A0A0D1E6B3 1-435 N246L/N247L) with L246D, L247G
# Procedure: as §1, §2, §3
# Gpe1R133A = target: T4, Gpe1R133A (Mycosarcoma maydis, UniProt A0A0D1E6B3, R133A); test: Dose-response in yeast reporter assay, Gpe1 R133A; assay type: cell-based, Ustilago maydis; settings: Fig. 4e; receptor variant R133A
# T4 construct: expressed in transfected cells; host or cells: Saccharomyces cerevisiae reporter strain, plasmid pIL0373 (made from pIL0186)
# T4 sequence (A0A0D1E6B3 1-435 R133A): T1 sequence (A0A0D1E6B3 1-435 N246L/N247L) with R133A, L246N, L247N
# Procedure: as §1, §2, §3
# [1] = system: UmGpe1 (Gpe1, UMAG_01374); test: GPCR activation assay in S. cerevisiae (yEmRFP reporter under FUS1 promoter), added protein/peptides; assay type: cell-based, Ustilago maydis
# Excerpt: To enable ligand identification, Gpe1 was then expressed in an engineered Saccharomyces cerevisiae strain to test receptor activation through production of a fluorescent reporter[22]. This strain is devoid of both endogenous mating GPCR genes (STE2 and STE3), all pheromone genes (MFA1/2 and MFALPHA1/MFALPHA2), BAR1, SST2 and FAR1[22]. And carries an unmodified version of ScGPA1, which is the homolog of U. maydis Gpa1[23]. The coupling of ScGPA1 with Gpe1, and later MAPK pathway activation, lead to the induction of a red fluorescent protein (yEmRFP) under control of the FUS1 promoter serves as readout.
# The activation assays for each GPCR were performed as previously described with slight modifications[22]. […] Experiments were performed in 96-well microtiter plates using a microplate reader (Tecan), and OD600 and red fluorescence were measured after 8 h. Experiments were run in triplicate.
# The mixture of tryptic-digested UmPit2 peptides were subjected to separation with a binary gradient of from 5 % to 95 % acetonitrile with a flowrate of 2 mL/min on an HPLC system (Agilent) for 60 min operated in a C-18 reverse phase column. The injection point was after 2 min and while the separation process was running, 2 mL sample was collected until fraction number 50. […]
# [2] = target: G-protein-coupled receptor promoting fungal in planta expansion 1 (Gpe1) (Ustilago maydis)
# S. cerevisiae Ste2 = test: GPCR activation assay in S. cerevisiae, positive control; assay type: cell-based, Saccharomyces cerevisiae; settings: 10 µM α-factor, full agonist positive control; set to 100 %
# Excerpt: Three extra- and intracellular loops connect the TMs, with the N-terminal 35 residues and the 38 residues of the second extracellular loop (ECL2) forming an extracellular extension (Fig. 1b). ECL2 is also predicted to be connected to TM3 via a disulfide bond formed by Cys178 and Cys108 (Fig. 1b), a hallmark of many rhodopsin-class GPCRs[21]. To enable ligand identification, Gpe1 was then expressed in an engineered Saccharomyces cerevisiae strain to test receptor activation through production of a fluorescent reporter. This strain is devoid of both endogenous mating GPCR genes (STE2 and STE3), all pheromone genes (MFA1/2 and MFALPHA1/MFALPHA2), BAR1, SST2 and FAR1[22]. And carries an unmodified version of ScGPA1, which is the homolog of U. maydis Gpa1[23]. The coupling of ScGPA1 with Gpe1, and later MAPK pathway activation, lead to the induction of a red fluorescent protein (yEmRFP) under control of the FUS1 promoter serves as readout. Western blot analysis confirmed expression of Gpe1 in S. cerevisiae (Supplementary Fig.1b).
# The activation assays for each GPCR were performed as previously described with slight modifications. […] Experiments were performed in 96-well microtiter plates using a microplate reader (Tecan), and OD600 and red fluorescence were measured after 8 h. Experiments were run in triplicate.
compound,measurement,setting,value
CC(C)C[C@H](NC(=O)[C@H](CO)NC(=O)CNC(=O)[C@@H](NC(=O)[C@H](Cc1ccccc1)NC(=O)CNC(=O)[C@H](Cc1ccccc1)NC(=O)[C@H](Cc1c[nH]c2ccccc12)NC(=O)[C@@H](N)Cc1c[nH]c2ccccc12)[C@@H](C)O)C(=O)O [Pit2.5] (H-WWFGFTGSL-OH),pEC50,Gpe1N246L+N247L,< 4.82
same,pEC50,wild-type Gpe1,7.10
same,pEC50,Gpe1N246D+N247G,6.40
same,pEC50,Gpe1R133A,< 4.82
WWFGFTGSLGK,Identification as Gpe1 agonist,[1]; peptide fractionation of tryptic Pit2 digest and mass spectrometry,Gpe1 agonist
Pit2.5-G07L (peptide),"EC50 of the yEmRFP reporter in S. cerevisiae, dose response with synthetic peptide; maximum fluorescence reduced",[2],23 nM
CC(C)C[C@H](NC(=O)[C@H](CO)NC(=O)[C@H](CC(C)C)NC(=O)[C@@H](NC(=O)[C@H](Cc1ccccc1)NC(=O)CNC(=O)[C@H](Cc1ccccc1)NC(=O)[C@H](Cc1c[nH]c2ccccc12)NC(=O)[C@@H](N)Cc1c[nH]c2ccccc12)[C@@H](C)O)C(=O)O [pit2.17] (H-WWFGFTLSL-OH),pEC50,wild-type Gpe1,7.64
AWFGFTGSL [pit2.13],Receptor activation in dose-response (in words),wild-type Gpe1; Fig. 2d,abolished receptor activation
Pit2: purified recombinant U. maydis effector protein Pit2 (UMAG_01375) lacking its signal peptide,"Gpe1 activation level, fluorescence normalized to the Ste2 activation being 100 %","[1]; 100 µM purified full-length Pit2 lacking signal peptide, red fluorescence after 8 h, mean of three independent biological experiments",~ 25%
Pit2.5 (…) (peptide),"EC50 of the yEmRFP reporter in S. cerevisiae, dose response with synthetic peptide",[2],80 nM
same,activation level (% activity) in the S. cerevisiae biosensor assay,UhGpe1 (Ustilago hordei),30%
SrPit2 peptide,activation level (% activity) in the S. cerevisiae biosensor assay,UhGpe1 (Ustilago hordei),45%
α-factor,"Ste2 activation, fluorescence level (normalization reference)",S. cerevisiae Ste2,100%
